Results on four compounds are retold here after patent US8183379B2, “Antitumor agents” (Wayne State University, priority 2005, dated 2012).

Structures are written as SMILES. Read-outs that look alike come from different tables or passages of the source.

The subject of data set [1] is Mammary Adenocarcinoma 16/C. As to the kind of experiment: Exp 2877A: evaluation against early stage Mammary Adenocarcinoma 16/C implanted SC in C3H female mice. Type of data set: in vivo. The procedure: In Experiment #2877A the following general methodologies were employed:
Tumor and Animal Maintenance
Mammary adenocarcinoma-16/C were used in the studies. […] The mice were supplied food and water ad libitum.
Chemotherapy of Solid Tumors
Animals were pooled, implanted subcutaneously with 30 to 60 mg tumor fragments by a 12 gauge trocar on day 0, and again pooled before unselective distribution to the various treatment and control groups. For early stage treatment, chemotherapy was started within 1 to 3 days after tumor implantation while the number of cells was relatively small (10^7 to 10^8 cells). Tumors were measured with a caliper twice weekly. Mice were sacrificed when their tumors reached 1500 mg. Tumor weights are estimated from two-dimensional measurements:
Tumor weight (in mg)=(a×b^2)/2, where a and b are the tumor length and width in (mm), respectively.
End Points for Assessing Antitumor Activity for Solid Tumors
The following quantitative endpoints were used to assess antitumor activity: • a) Tumor growth delay (T−C value), where T is the median time (in days) required for the treatment group tumors to reach a predetermined size (e.g., 1000 mg), and C is the median time (in days) for the control group tumors to reach the same size. Tumor-free survivors are excluded from these calculations (cures are tabulated separately). This value is an important criterion of antitumor effectiveness because it allows the quantification of tumor cell kill. • b) Calculation of tumor cell kill For subcutaneously (SC) growing tumors, the log10 cell kill was calculated from the following formula:
[formula] where T−C is the tumor growth delay as described above and Td is the tumor volume doubling time (in days), estimated from the best fit straight line from a log-linear growth plot of the control group tumors in exponential growth (100 to 800 mg range). The conversion of the T−C values to log10 cell kill is possible because the Td of tumors regrowing post treatment (Rx) approximates the Td values of the tumors in untreated control mice.
The issue of conversion of tumor growth delay (T−C value) to log tumor cell kill is justified in this series because of the large number of cures obtained with 5 of the agents in this XK469 series that have been previously studied and patented. Cures are a clear indication of tumor cell kill (rather than stasis of tumor cell replication).
In selected cases, both for historic in vivo evaluation data as well as data presented here, it is of value to compare log kill numbers from trials of markedly different testing schedules. For this purpose, an activity table was created, and is presented below. It should be noted that an activity rating of +++ to ++++ is needed to effect partial regression (PR) or complete regression (CR) of 100 to 300 mg size masses of most transplanted solid tumors of mice. Thus, an activity rating of + or ++ would not be scored as active by usual clinical criteria. A PR is a reduction in tumor mass to less than 50% of pretreatment size. A CR is a reduction in tumor mass to below palpable size (i.e., reduction to zero detectable mass).

How the values of data set [2] were obtained: Mammary adenocarcinoma-16/C were used in the studies. Tumors were maintained in the mouse strain of origin C3H (for the mammary tumors). Individual mouse body weights for each experiment were within 5 grams, and all mice were over 17 grams at the start of therapy. The mice were supplied food and water ad libitum.
The treatment and control groups were measured when the control group tumors reach approximately 700 to 1200 mg in size (median of group). The T/C value in percent is an indication of antitumor effectiveness: A T/C=0% means no tumor growth. […] A T/C equal to or less than 42% is considered significant antitumor activity by the Drug Evaluation Branch of the Division of Cancer Treatment (NCI). A T/C value <10% is considered to indicate highly significant antitumor activity, and is the level used by NCI to justify a clinical trial if toxicity, formulation, and certain other requirements are met (termed DN-2 level activity).

Data set [3] deals with transplantable mouse tumors. The note with it: cited from earlier work.
Setting [4] is: Cg 4, IV Q2dx7, 54 mg/kg, total 378 mg/kg.
The mark [5] stands for this setting: Cg 5, IV Q2dx7, 34 mg/kg, total 238 mg/kg.
The mark [6] stands for this setting: Cg 6, IV Q2dx7, 48-60 mg/kg, total 372 mg/kg.
[7] abbreviates: Cg 7, IV Q2dx7, 30-38 mg/kg, total 234 mg/kg.
Setting [8] is: Cg 8, IV Qd1,3,5,7-13, 57-125 mg/kg, total 822 mg/kg.
[9] abbreviates: Cg 9, IV Qd1,3,5,7-13, 36-75 mg/kg, total 513 mg/kg.

As to `COc1c(Br)ccc2ccc(Oc3ccc(OC(C)C(=O)O)cc3)nc12` (stereo not drawn) [SH135R, 2-(4-(7-Bromo-8-methoxyquinolin-2-yloxy)phenoxy)propanoic acid], in data set [1] (setting [4]), the “Activity rating (Comments)” value is reported as “(++++) (Highly active ++++ >2.8)”, the “Log Cell Kill Gross” value worked out at 5.0, the “Log Cell Kill Net” value turned out to be 1.4 and the “Median Tumor Burden in mg on d10” value was 0 mg. In data set [1] (setting [4]), the “T-C” value was 16.5 days, the T/C % is 0%, the “Time to 1000 mg” value came to 25.5 days and the “Tumor Free on d43” value was 0/5. Further, in data set [1] (setting [5]), the “Activity rating (Comments)” value is on record as “(++++) (Highly active ++++ >2.8)”, the “Log Cell Kill Gross” value worked out at 4.2, the “Log Cell Kill Net” value is on record as 0.6 and the “Median Tumor Burden in mg on d10” value was determined as 63 mg. In data set [1] (setting [5]), the “T-C” value turned out to be 14 days, the T/C % is on record as 5.5%, the “Time to 1000 mg” value is 23 days and the “Tumor Free on d43” value is 0/4. Further, the T/C % in data set [1] (Cg 5, IV Q2dx7, 34 mg/kg, total 238 mg/kg, listed as SH 135(R)) stood at 0%.

On to `COc1c(Cl)ccc2ccc(Oc3ccc(OC(C)C(=O)O)cc3)nc12` (stereo not drawn) [SH140R, 2-(4-(7-Chloro-8-methoxyquinolin-2-yloxy)phenoxy)propanoic acid], for which the “Drug Death (day of death)” value in data set [2] (setting [6]) was 0/5. In data set [2] (setting [7]), the “Drug Death (day of death)” value is listed as 0/5. Moreover, in data set [1] (setting [6]), the “Activity rating (Comments)” value is “(++++) (Highly active ++++ >2.8)”, the “Log Cell Kill Gross” value is on record as 4.8, the “Log Cell Kill Net” value is 1.2 and the “Median Tumor Burden in mg on d10” value is 0 mg. Also, in data set [1] (setting [6]), the “T-C” value amounted to 16 days, the T/C % is reported as 0%, the “Time to 1000 mg” value came to 25 days and the “Tumor Free on d43” value was 0/5. Also, in data set [1] (setting [7]), the “Activity rating (Comments)” value was “(++++) (Highly active ++++ >2.8)”, the “Log Cell Kill Gross” value is recorded as 3.6, the “Log Cell Kill Net” value was determined as 0 and the “Median Tumor Burden in mg on d10” value was 63 mg. In data set [1] (setting [7]), the “T-C” value came out at 12 days, the T/C % is given as 5.5%, the “Time to 1000 mg” value worked out at 21 days and the “Tumor Free on d43” value is 0/5.

On to `CC(Oc1ccc(Oc2cnc3ccc(Cl)cc3n2)cc1)C(=O)[O-].[Na+]` (stereo not drawn) [XK469], for which the “activity against transplantable mouse tumors” value in data set [3] (Corbett et al., Investigational New Drugs 16, 129-139 (1998)) is listed as “broad activity”. Further, the undesirable side effects entry in data set [3] (reported, in vivo) is “in vivo toxicity, e.g., paralytic ileus, GI-epithelial damage, marrow toxicity, neuromuscular toxicity and weight loss”. Moreover, the potency entry in data set [3] (reported) was “relatively low potency”.

Turning to `COc1c(F)ccc2ccc(Oc3ccc(OC(C)C(=O)O)cc3)nc12` (stereo not drawn) [SH144R, 2-(4-(7-Fluoro-8-methoxyquinolin-2-yloxy)phenoxy)propanoic acid], the “Drug Death (day of death)” value in data set [2] (setting [8]) is listed as 0/4. For the same compound, in data set [2] (Cg 8, IV Qd1,3,5,7-13, 57-125 mg/kg, total 822 mg/kg, listed as SH 144(R)), the “Drug Death (day of death)” value was “no drug deaths”. The “Drug Death (day of death)” value in data set [2] (setting [9]) is 0/5. Also, in data set [1] (setting [8]), the “Activity rating (Comments)” value is recorded as “(++++) (Highly active ++++ >2.8)”, the “Log Cell Kill Gross” value came out at 4.1, the “Log Cell Kill Net” value is 0.5 and the “Median Tumor Burden in mg on d10” value was 0 mg. In data set [1] (setting [8]), the “T-C” value is given as 13.5 days, the T/C % worked out at 0%, the “Time to 1000 mg” value was found to be 22.5 days and the “Tumor Free on d43” value is listed as 0/4. In addition, in data set [1] (setting [9]), the “Activity rating (Comments)” value was “(+++) (2.0-2.8)”, the “Log Cell Kill Gross” value was 2.1, the “Log Cell Kill Net” value is listed as −1.5 and the “Median Tumor Burden in mg on d10” value was 320 mg. Moreover, in data set [1] (setting [9]), the “T-C” value came out at 7 days, the T/C % is 28%, the “Time to 1000 mg” value was 16 days and the “Tumor Free on d43” value is listed as 0/5.
